Assay: xn = mol fraction of the nth substance listed
Details: Gas, Frequency=0.05 MHz, Single path-length method, x2 = 0.058

FC(F)(F)C(F)(F)C(F)(F)F [octafluoropropane] + N#N
Details | speed of sound [m/s]
293.32 K, 0.09882 kPa | 117.97
293.32 K, 0.119 kPa | 117.53
293.32 K, 0.1196 kPa | 117.53
293.32 K, 0.139 kPa | 117.08
293.32 K, 0.1393 kPa | 117.06
293.32 K, 0.1596 kPa | 116.59
293.32 K, 0.1599 kPa | 116.61
293.32 K, 0.1779 kPa | 116.19
293.32 K, 0.1782 kPa | 116.19
293.32 K, 0.1958 kPa | 115.78
293.32 K, 0.1967 kPa | 115.77
293.32 K, 0.207 kPa | 115.54
293.32 K, 0.2174 kPa | 115.26
293.32 K, 0.218 kPa | 115.26
293.32 K, 0.2185 kPa | 115.27
293.32 K, 0.2573 kPa | 114.33
293.32 K, 0.2766 kPa | 113.86
293.32 K, 0.2771 kPa | 113.88
293.32 K, 0.2946 kPa | 113.41
293.32 K, 0.2954 kPa | 113.39
293.32 K, 0.3175 kPa | 112.86
293.32 K, 0.3315 kPa | 112.52
298.38 K, 0.1005 kPa | 119.04
298.38 K, 0.121 kPa | 118.61
298.38 K, 0.1413 kPa | 118.17
298.38 K, 0.1627 kPa | 117.7
298.38 K, 0.1814 kPa | 117.31
298.38 K, 0.2001 kPa | 116.91
298.38 K, 0.2106 kPa | 116.69
298.38 K, 0.2213 kPa | 116.42
298.38 K, 0.222 kPa | 116.42
298.38 K, 0.262 kPa | 115.52
298.38 K, 0.282 kPa | 115.07
298.38 K, 0.3011 kPa | 114.61
298.38 K, 0.3239 kPa | 114.1
298.38 K, 0.338 kPa | 113.78
303.42 K, 0.1021 kPa | 120.1
303.42 K, 0.1231 kPa | 119.68
303.42 K, 0.1437 kPa | 119.25
303.42 K, 0.1656 kPa | 118.81
303.42 K, 0.1845 kPa | 118.41
303.42 K, 0.2036 kPa | 118.03
303.42 K, 0.2142 kPa | 117.81
303.42 K, 0.2253 kPa | 117.56
303.42 K, 0.2258 kPa | 117.55
303.42 K, 0.2668 kPa | 116.7
303.42 K, 0.2873 kPa | 116.26
303.42 K, 0.3067 kPa | 115.81
303.42 K, 0.3302 kPa | 115.32
303.42 K, 0.3443 kPa | 114.98
308.47 K, 0.1038 kPa | 121.14
308.47 K, 0.1251 kPa | 120.73
308.47 K, 0.146 kPa | 120.32
308.47 K, 0.1683 kPa | 119.89
308.47 K, 0.1877 kPa | 119.52
308.47 K, 0.207 kPa | 119.14
308.47 K, 0.2178 kPa | 118.93
308.47 K, 0.2293 kPa | 118.7
308.47 K, 0.2297 kPa | 118.68
308.47 K, 0.2717 kPa | 117.84
308.47 K, 0.2924 kPa | 117.42
308.47 K, 0.3124 kPa | 116.99
308.47 K, 0.3365 kPa | 116.51
308.47 K, 0.3509 kPa | 116.21
313.51 K, 0.1052 kPa | 122.18
313.51 K, 0.1271 kPa | 121.79
313.51 K, 0.1483 kPa | 121.39
313.51 K, 0.171 kPa | 120.97
313.51 K, 0.1907 kPa | 120.6
313.51 K, 0.2105 kPa | 120.24
313.51 K, 0.2214 kPa | 120.03
313.51 K, 0.2331 kPa | 119.78
313.51 K, 0.2338 kPa | 119.8
313.51 K, 0.2763 kPa | 118.97
313.51 K, 0.2975 kPa | 118.58
313.51 K, 0.318 kPa | 118.15
313.51 K, 0.3428 kPa | 117.7
313.51 K, 0.3574 kPa | 117.4
318.52 K, 0.1068 kPa | 123.2
318.52 K, 0.1291 kPa | 122.82
318.52 K, 0.1506 kPa | 122.42
318.52 K, 0.1737 kPa | 122.03
318.52 K, 0.1939 kPa | 121.67
318.52 K, 0.2139 kPa | 121.32
318.52 K, 0.2251 kPa | 121.12
318.52 K, 0.2374 kPa | 120.89
318.52 K, 0.2377 kPa | 120.89
318.52 K, 0.2812 kPa | 120.11
318.52 K, 0.3027 kPa | 119.71
318.52 K, 0.3235 kPa | 119.3
318.52 K, 0.349 kPa | 118.86
318.52 K, 0.3638 kPa | 118.57
323.53 K, 0.1085 kPa | 124.22
323.53 K, 0.1312 kPa | 123.85
323.53 K, 0.1531 kPa | 123.46
323.53 K, 0.1766 kPa | 123.09
323.53 K, 0.197 kPa | 122.74
323.53 K, 0.2175 kPa | 122.4
323.53 K, 0.2288 kPa | 122.2
323.53 K, 0.2413 kPa | 121.97
323.53 K, 0.2416 kPa | 121.98
323.53 K, 0.2859 kPa | 121.21
323.53 K, 0.308 kPa | 120.83
323.53 K, 0.3293 kPa | 120.45
323.53 K, 0.3551 kPa | 120.01
323.53 K, 0.3704 kPa | 119.72
